From US20260022142A1, “MACROCYCLIC IMMUNOMODULATORS” (Bristol-Myers Squibb Company, priority 2022, published 2026)
Numbered stars: 1 amine (or outer) side, 2 acyl side, 3 side chain; on linkers, the order of the positions; unused ones are H or OH. Bridge positions count the residues as written; N and C are the ends. Square brackets hold non-standard residues; d marks the D form. Peptide text beside a SMILES is read from it. * marks the point of attachment. ξ: configuration not given here. Phe(4-CONH2) = NC(=O)c1ccc(C[C@H](N)C(=O)O)cc1; Phe(4-COOH) = N[C@@H](Cc1ccc(C(=O)O)cc1)C(=O)O; Bip = N[C@@H](Cc1ccc(-c2ccccc2)cc1)C(=O)O; NH(CH2)14COOH = O=C(O)CCCCCCCCCCCCCCN*; Phe(3-Me) = Cc1cccc(C[C@H](N)C(=O)O)c1; Abu(3S-NH2) = C[C@H](N)[C@H](N)C(=O)O; βAsp = O=C(O)[C@H](CC(=O)[*:2])N[*:1]; NH(CH2)12COOH = O=C(O)CCCCCCCCCCCCN*; Val(3-OH) = CC(C)(O)[C@H](N)C(=O)O; Pip(4-aza) = O=C(O)[C@@H]1CNCCN1; hArg = N=C(N)NCCCC[C@H](N)C(=O)O; hhGln = NC(=O)CCCC[C@H](N)C(=O)O; 4Pal = N[C@@H](Cc1ccncc1)C(=O)O; Cha = N[C@@H](CC1CCCCC1)C(=O)O; Cit = NC(=O)NCCC[C@H](N)C(=O)O; Thr(3ξ) = CC(O)[C@H](N)C(=O)O; 12Ado = NCCCCCCCCCCCC(=O)O; Carboxymethyl = O=C(O)C*; Orn = NCCC[C@H](N)C(=O)O; Aun = NCCCCCCCCCCC(=O)O; Dab = NCC[C@H](N)C(=O)O; ξE = NC(CCC(=O)O)C(=O)O; Abu = CC[C@H](N)C(=O)O; Dap = NC[C@H](N)C(=O)O; AEEA = NCCOCCOCC(=O)O

target: T1, PD-1/PD-L1 interaction (PE-labeled human PD-L1-Ig binding to Jurkat cell line over-expressing human PD-1) (Homo sapiens, UniProt Q15116); test: Jurkat-PD-1 Cell Binding High-Content Screening Assay (CBA); type: cell-based; conditions: Jurkat cell line over-expressing human PD-1; PE-labeled PD-L1-Ig 20 nM final; read-out: Jurkat hPD1-PDL1 IC50
T1 construct: expressed in transfected cells; host or cells: Jurkat
T1 sequence (Q15116 25-288): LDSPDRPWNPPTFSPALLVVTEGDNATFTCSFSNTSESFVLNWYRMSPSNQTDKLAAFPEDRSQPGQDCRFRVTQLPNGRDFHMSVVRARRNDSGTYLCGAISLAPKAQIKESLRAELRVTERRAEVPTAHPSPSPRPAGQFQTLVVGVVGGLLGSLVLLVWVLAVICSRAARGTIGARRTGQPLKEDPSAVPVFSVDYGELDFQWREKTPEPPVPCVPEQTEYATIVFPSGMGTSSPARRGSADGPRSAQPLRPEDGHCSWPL
In short: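 Binding of fluorescent PD-L1-Ig (20 nM final) to Jurkat-PD-1 cells was measured by automated imaging after 1 h, following a 2 h compound pre-treatment at 37° C.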

Row | IC50 | SMILES
1 | 135 nM | CC(C)C[C@@H]1NC(=O)[C@H](Cc2c[nH]c3ccccc23)NC(=O)[C@H](CC(=O)O)NC(=O)[C@H](Cc2ccncc2)NC(=O)[C@H](Cc2ccc(OCC(=O)O)cc2)NC(=O)CSC[C@@H](C(=O)N2CCNC[C@H]2C(=O)NCCCCCCCCCCC(=O)O)NC(=O)[C@H](C(C)O)NC(=O)[C@H](C(C)C)NC(=O)[C@H](CC2CCCCC2)NC(=O)[C@H](CCN)NC(=O)[C@@H](CC(C)C)NC(=O)[C@H](CCCN)NC(=O)[C@H](C(C)C)NC(=O)[C@H](Cc2ccc(-c3ccccc3)cc2)NC1=O (stereo partly drawn) [Compound 1223] ({CH2CO}-Y(Carboxymethyl)[4Pal]DWL[Bip]V[Orn][dL][Dab][Cha]V[Thr(3ξ)]C[Pip(4-aza)][Aun]-OH; thioether N-14)
2 | 4.7 nM | Cc1cccc(C[C@@H]2NC(=O)[C@H](CC(=O)O)NC(=O)[C@H](Cc3ccc(OCC(=O)O)cc3)NC(=O)[C@H](CCN)NC(=O)CSC[C@@H](C(=O)N[C@@H](CCN)C(=O)NCCOCCOCC(=O)NCCOCCOCC(=O)NCCCCCCCCCCCCC(=O)O)NC(=O)[C@H](Cc3cnc[nH]3)NC(=O)[C@H](C(C)(C)O)NC(=O)[C@H](CC3CCCCC3)NC(=O)[C@H](CCN)NC(=O)[C@@H](CC(C)C)NC(=O)[C@H](CCCN)NC(=O)[C@H](Cc3ccc(OCC(=O)O)cc3)NC(=O)[C@H](Cc3ccc(-c4ccccc4)cc3)NC(=O)[C@H](Cc3ccc(OCC(=O)O)cc3)NC2=O)c1 [Compound 3760] ({CH2CO}-[Dab]Y(Carboxymethyl)D[Phe(3-Me)]Y(Carboxymethyl)[Bip]Y(Carboxymethyl)[Orn][dL][Dab][Cha][Val(3-OH)]HC[Dab][AEEA][AEEA]-{NH(CH2)12COOH}; thioether N-14)
3 | 103 nM | CC[C@H](C)[C@@H]1NC(=O)[C@H](Cc2ccc(-c3ccccc3)cc2)NC(=O)[C@H](C(C)C)NC(=O)[C@H](Cc2cccc(C)c2)NC(=O)[C@H](CC(=O)O)NC(=O)[C@H](Cc2ccc(C(=O)O)cc2)NC(=O)[C@H](Cc2ccncc2)NC(=O)CSC[C@@H](C(=O)N[C@@H](CCCNC(=N)N)C(=O)NCCCCCCCCCCC(=O)O)NC(=O)[C@H]([C@@H](C)O)NC(=O)[C@H](C(C)C)NC(=O)[C@H](CC2CCCCC2)NC(=O)[C@H](CCN)NC(=O)[C@@H](CC(C)C)NC(=O)[C@H](CCCN)NC1=O [Compound 1186]
4 | 55 nM | Cc1cccc(C[C@@H]2NC(=O)[C@H](CC(=O)O)NC(=O)[C@H](Cc3ccc(OCC(=O)O)cc3)NC(=O)[C@H](CN)NC(=O)CSC[C@@H](C(=O)N[C@@H](CCN)C(=O)NCCCCCCCCCCC(=O)O)NC(=O)[C@H]([C@H](C)N)NC(=O)[C@H](C(C)C)NC(=O)[C@H](CC3CCCCC3)NC(=O)[C@H](CCN)NC(=O)[C@@H](CC(C)C)NC(=O)[C@H](CCCN)NC(=O)[C@H](Cc3ccc(OCC(=O)O)cc3)NC(=O)[C@H](Cc3ccc(-c4ccccc4)cc3)NC(=O)[C@H](Cc3ccc(OCC(=O)O)cc3)NC2=O)c1 [Compound 2173] ({CH2CO}-[Dap]Y(Carboxymethyl)D[Phe(3-Me)]Y(Carboxymethyl)[Bip]Y(Carboxymethyl)[Orn][dL][Dab][Cha]V[Abu(3S-NH2)]C[Dab][Aun]-OH; thioether N-14)
5 | 13.1 nM | Cc1cccc(C[C@@H]2NC(=O)[C@H](CC(=O)O)NC(=O)[C@H](Cc3ccc(OCC(=O)O)cc3)NC(=O)[C@H](Cc3ccc(C(N)=O)cc3)NC(=O)CSC[C@@H](C(=O)N[C@@H](CCN)C(=O)NCCCCCCCCCCC(=O)O)NC(=O)[C@H]([C@@H](C)O)NC(=O)[C@H](C(C)C)NC(=O)[C@H](CC3CCCCC3)NC(=O)[C@H](CCN)NC(=O)[C@@H](CC(C)C)NC(=O)[C@H](CCCN)NC(=O)[C@H](CCCNC(N)=O)NC(=O)[C@H](Cc3ccc(-c4ccccc4)cc3)NC(=O)[C@H](C(C)C)NC2=O)c1 [Compound 2827] ({CH2CO}-[Phe(4-CONH2)]Y(Carboxymethyl)D[Phe(3-Me)]V[Bip][Cit][Orn][dL][Dab][Cha]VTC[Dab][Aun]-OH; thioether N-14)
6 | 16.9 nM | Cc1cccc(C[C@@H]2NC(=O)[C@H](CC(=O)O)NC(=O)[C@H](Cc3ccc(OCC(=O)O)cc3)NC(=O)[C@H](CCCCNC(=N)N)NC(=O)CSC[C@@H](C(=O)N[C@@H](CCN)C(=O)N[C@@H](CO)C(=O)NCCCCCCCCCCCC(=O)O)NC(=O)[C@H](CO)NC(=O)[C@H](C(C)C)NC(=O)[C@H](CC3CCCCC3)NC(=O)[C@H](CCN)NC(=O)[C@@H](CC(C)C)NC(=O)[C@H](CCCN)NC(=O)[C@H](CCCNC(=N)N)NC(=O)[C@H](Cc3ccc(-c4ccccc4)cc3)NC(=O)[C@H](C(C)C)NC2=O)c1 [Compound 3571] ({CH2CO}-[hArg]Y(Carboxymethyl)D[Phe(3-Me)]V[Bip]R[Orn][dL][Dab][Cha]VSC[Dab]S[12Ado]-OH; thioether N-14)
7 | 18.8 nM | CC(=O)NCCCC[C@@H]1NC(=O)[C@H](Cc2ccc(-c3ccccc3)cc2)NC(=O)[C@H](Cc2ccc(OCC(=O)O)cc2)NC(=O)[C@H](Cc2cccc(C)c2)NC(=O)[C@H](CC(=O)O)NC(=O)[C@H](Cc2ccc(OCC(=O)O)cc2)NC(=O)[C@H](CCN)NC(=O)CSC[C@@H](C(=O)N[C@@H](CCN)C(=O)N[C@@H](CO)C(=O)NCCCCCCCCCCC(=O)O)NC(=O)[C@H](CO)NC(=O)[C@H](C(C)(C)O)NC(=O)[C@H](CC2CCCCC2)NC(=O)[C@H](CCN)NC(=O)[C@@H](CC(C)C)NC(=O)[C@H](CCCN)NC1=O [Compound 3644] ({CH2CO}-[Dab]Y(Carboxymethyl)D[Phe(3-Me)]Y(Carboxymethyl)[Bip]K(Ac)[Orn][dL][Dab][Cha][Val(3-OH)]SC[Dab]S[Aun]-OH; thioether N-14)
8 | 1.6 nM | CC[C@@H]1NC(=O)CSC[C@@H](C(=O)N[C@@H](CCN)C(=O)NCCOCCOCC(=O)NCCOCCOCC(=O)NCCCCCCCCCCC(=O)O)NC(=O)[C@H](CO)NC(=O)[C@H](C(C)(C)O)NC(=O)[C@H](CC2CCCCC2)NC(=O)[C@H](CCN)NC(=O)[C@@H](CC(C)C)NC(=O)[C@H](CCCN)NC(=O)[C@H](Cc2ccc(C(=O)O)cc2)NC(=O)[C@H](Cc2ccc(-c3ccccc3)cc2)NC(=O)[C@H](Cc2ccc(C(=O)O)cc2)NC(=O)[C@H](Cc2cccc(C)c2)NC(=O)[C@H](CC(=O)O)NC(=O)[C@H](Cc2ccc(OCC(=O)O)cc2)NC1=O [Compound 2882] ({CH2CO}-[Abu]Y(Carboxymethyl)D[Phe(3-Me)][Phe(4-COOH)][Bip][Phe(4-COOH)][Orn][dL][Dab][Cha][Val(3-OH)]SC[Dab][AEEA][AEEA][Aun]-OH; thioether N-14)
9 | 23.8 nM | Cc1cccc(C[C@@H]2NC(=O)[C@H](CC(=O)O)NC(=O)[C@H](Cc3ccc(O)cc3)NC(=O)[C@H](CC(N)=O)NC(=O)CSC[C@@H](C(=O)N[C@@H](CCN)C(=O)NCCCCCCCCCCC(=O)O)NC(=O)[C@H](CCC(N)=O)NC(=O)[C@H](C(C)C)NC(=O)[C@H](CC(C)C)NC(=O)[C@H](CCN)NC(=O)[C@@H](CC(C)C)NC(=O)[C@H](CCCN)NC(=O)[C@H](CCCNC(N)=O)NC(=O)[C@H](Cc3ccc(-c4ccccc4)cc3)NC(=O)[C@H](C(C)C)NC2=O)c1 [Compound 2789] ({CH2CO}-NYD[Phe(3-Me)]V[Bip][Cit][Orn][dL][Dab]LVQC[Dab][Aun]-OH; thioether N-14)
10 | 119 nM | CC(=O)NCCCC[C@@H]1NC(=O)[C@H](C(C)(C)O)NC(=O)[C@H](CC2CCCCC2)NC(=O)[C@H](CCN)NC(=O)[C@@H](CC(C)C)NC(=O)[C@H](CCCN)NC(=O)[C@H](Cc2ccc(C(=O)O)cc2)NC(=O)[C@H](Cc2ccc(-c3ccccc3)cc2)NC(=O)[C@H](Cc2ccc(C(=O)O)cc2)NC(=O)[C@H](Cc2cccc(C)c2)NC(=O)[C@H](CC(=O)O)NC(=O)[C@H](Cc2ccc(OCC(=O)O)cc2)NC(=O)[C@H](Cc2ccc(OCC(=O)O)cc2)NC(=O)CSC[C@@H](C(=O)N[C@@H](CCN)C(=O)NCCCCCCCCCCCCCCC(=O)O)NC1=O [Compound 3865] ({CH2CO}-Y(Carboxymethyl)Y(Carboxymethyl)D[Phe(3-Me)][Phe(4-COOH)][Bip][Phe(4-COOH)][Orn][dL][Dab][Cha][Val(3-OH)]K(Ac)C[Dab]-{NH(CH2)14COOH}; thioether N-14)
11 | 8.5 nM | Cc1cccc(C[C@@H]2NC(=O)[C@H](CC(=O)O)NC(=O)[C@H](Cc3ccc(OCC(=O)O)cc3)NC(=O)[C@H](CN)NC(=O)CSC[C@@H](C(=O)N[C@@H](C)C(=O)NC(CCC(=O)O)C(=O)NCCOCCOCC(=O)NCCCCCCCCCCC(=O)O)NC(=O)[C@H](CCCN)NC(=O)[C@H](C(C)C)NC(=O)[C@H](CC3CCCCC3)NC(=O)[C@H](CCN)NC(=O)[C@@H](CC(C)C)NC(=O)[C@H](CCCN)NC(=O)[C@H](CCCCC(N)=O)NC(=O)[C@H](Cc3ccc(-c4ccccc4)cc3)NC(=O)[C@H](C(C)C)NC2=O)c1 (stereo partly drawn) [Compound 2615] ({CH2CO}-[Dap]Y(Carboxymethyl)D[Phe(3-Me)]V[Bip][hhGln][Orn][dL][Dab][Cha]V[Orn]CA[ξE][AEEA][Aun]-OH; thioether N-14)
12 | 6.8 nM | Cc1cccc(C[C@@H]2NC(=O)[C@H](CC(=O)O)NC(=O)[C@H](Cc3ccc(OCC(=O)O)cc3)NC(=O)[C@H](CN)NC(=O)CSC[C@@H](C(=O)N[C@@H](C)C(=O)N[C@@H](CC(=O)NCCOCCOCC(=O)N[C@@H](CC(=O)O)C(=O)NCCOCCOCC(=O)NCCCCCCCCCCC(=O)O)C(=O)O)NC(=O)[C@H]([C@@H](C)O)NC(=O)[C@H](C(C)C)NC(=O)[C@H](CC3CCCCC3)NC(=O)[C@H](CCN)NC(=O)[C@@H](CC(C)C)NC(=O)[C@H](CCCN)NC(=O)[C@H](CCCNC(N)=O)NC(=O)[C@H](Cc3ccc(-c4ccccc4)cc3)NC(=O)[C@H](C(C)C)NC2=O)c1 [Compound 1019] ({CH2CO}-[Dap]Y(Carboxymethyl)D[Phe(3-Me)]V[Bip][Cit][Orn][dL][Dab][Cha]VTCA[βAsp][AEEA]D[AEEA][Aun]-OH; thioether N-14)
